Test results reported in ChEMBL document CHEMBL6114954, “Design, synthesis and cytotoxic activity of novel lipophilic cationic derivatives of diosgenin and sarsasapogenin” (Bioorg Med Chem Lett, 2025).
Activity calls are given as the source filed them. No cut-off for these calls is given here.

What was measured:
[1] = tested on: HepG2; experiment: Cytotoxicity against human HepG2 cells; format: functional, cell-based
[2] = tested on: A549; experiment: Cytotoxicity against human A549 cells; format: functional, cell-based
[3] = tested on: MDA-MB-231; experiment: Cytotoxicity against human MDA-MB-231 cells; format: functional, cell-based
[4] = tested on: A549; experiment: Induction of cell cycle arrest in human A549 cells assessed as accumulation at G0/G1 phase at 1 to 4 uM incubated for 24 hrs by PI staining based flow cytometry; format: functional; settings: dose 1-4 µM
[5] = tested on: A549; experiment: Induction of apoptosis in human A549 cells assessed as apoptosis ratio at 1 uM incubated for 24 hrs by Annexin V-FITC/PI staining based flow cytometry (reference value: 4.38 %); format: functional
[6] = tested on: A549; experiment: Induction of apoptosis in human A549 cells assessed as apoptosis ratio at 2 uM incubated for 24 hrs by Annexin V-FITC/PI staining based flow cytometry (reference value: 4.38 %); format: functional
[7] = tested on: A549; experiment: Induction of apoptosis in human A549 cells assessed as apoptosis ratio at 4 uM incubated for 24 hrs by Annexin V-FITC/PI staining based flow cytometry (reference value: 4.38 %); format: functional
[8] = tested on: A549; experiment: Induction of apoptosis in human A549 cells assessed as increase in Bax level by Western blot analysis; format: functional, cell-based; settings: dose <= 4.0 µM
[9] = tested on: A549; experiment: Induction of apoptosis in human A549 cells assessed as decrease in Bcl-2 level by Western blot analysis; format: functional, cell-based; settings: dose <= 4.0 µM
[10] = tested on: A549; experiment: Induction of apoptosis in human A549 cells assessed as decrease in pro-caspase 3 level upto 4 microM by Western blot analysis; format: functional, cell-based
[11] = tested on: A549; experiment: Induction of intracellular ROS generation in human A549 cells incubated for 48 hrs by DCFH-DA staining based analysis; format: functional, cell-based; settings: dose 1-4 µM
[12] = tested on: A549; experiment: Induction of mitochondrial membrane potential depolarization in human A549 cells at 1 uM by JC-1 staining based flow cytometry (reference value: 7.4 %); format: functional
[13] = tested on: A549; experiment: Induction of mitochondrial membrane potential depolarization in human A549 cells at 2 uM by JC-1 staining based flow cytometry (reference value: 7.4 %); format: functional
[14] = tested on: A549; experiment: Induction of mitochondrial membrane potential depolarization in human A549 cells at 4 uM by JC-1 staining based flow cytometry (reference value: 7.4 %); format: functional

CC1CC[C@@]2(OC1)O[C@H]1C[C@H]3[C@@H]4CC=C5C[C@@H](OC(=O)C[P+](c6ccccc6)(c6ccccc6)c6ccccc6)CC[C@]5(C)[C@H]4CC[C@]3(C)[C@H]1[C@@H]2C (some centres not stated)
IC50 [1]: 22.2 µM
IC50 [2]: 15.6 µM
IC50 [3]: 33.3 µM

CC[N+]1(CCCC(=O)O[C@H]2CC[C@@]3(C)C(=CC[C@H]4[C@@H]5C[C@@H]6O[C@]7(CCC(C)CO7)[C@@H](C)[C@@H]6[C@@]5(C)CC[C@@H]43)C2)CCNCC1 (some centres not stated)
IC50 [1]: 33.7 µM
IC50 [2]: 18.6 µM
IC50 [3]: 49.2 µM

C[C@@H]1CC[C@@]2(OC1)O[C@H]1C[C@H]3[C@@H]4CC=C5C[C@@H](O)CC[C@]5(C)[C@H]4CC[C@]3(C)[C@H]1[C@@H]2C [DISOGENIN]
IC50 [1]: > 50 µM
IC50 [3]: > 50 µM

CC[N+]1(CCCC(=O)O[C@H]2CC[C@@]3(C)[C@H](CC[C@@H]4[C@@H]3CC[C@]3(C)[C@@H]5[C@H](C[C@@H]43)O[C@]3(CCC(C)CO3)[C@H]5C)C2)CCOCC1 (some centres not stated)
IC50 [1]: 22.6 µM
IC50 [2]: 18.7 µM
IC50 [3]: 34.8 µM

CC1CC[C@@]2(OC1)O[C@H]1C[C@H]3[C@@H]4CC[C@@H]5C[C@@H](OC(=O)C[P+](c6ccccc6)(c6ccccc6)c6ccccc6)CC[C@]5(C)[C@H]4CC[C@]3(C)[C@H]1[C@@H]2C (some centres not stated)
IC50 [1]: 22.6 µM
IC50 [2]: 5.23 µM
IC50 [3]: 42.9 µM

CC(=O)O[C@H]1CC[C@@]2(C)C(=CC[C@H]3[C@@H]4C[C@@H]5O[C@H](CC[C@@H](C)COC(=O)C[P+](c6ccccc6)(c6ccccc6)c6ccccc6)[C@@H](C)[C@@H]5[C@@]4(C)CC[C@@H]32)C1
IC50 [1]: 25.4 µM
IC50 [2]: 10.8 µM
IC50 [3]: 32 µM

CC1CC[C@@]2(OC1)O[C@H]1C[C@H]3[C@@H]4CC=C5C[C@@H](OC(=O)CCCCC[P+](c6ccccc6)(c6ccccc6)c6ccccc6)CC[C@]5(C)[C@H]4CC[C@]3(C)[C@H]1[C@@H]2C (some centres not stated)
IC50 [1]: 4.19 µM
IC50 [2]: 1.24 µM
IC50 [3]: 5.49 µM

CC1CC[C@@]2(OC1)O[C@H]1C[C@H]3[C@@H]4CC[C@@H]5C[C@@H](OC(=O)CCCCC[P+](c6ccccc6)(c6ccccc6)c6ccccc6)CC[C@]5(C)[C@H]4CC[C@]3(C)[C@H]1[C@@H]2C (some centres not stated)
IC50 [1]: 4.18 µM
IC50 [2]: 1.3 µM
IC50 [3]: 5.01 µM

CC[N+]1(CCCC(=O)O[C@H]2CC[C@@]3(C)[C@H](CC[C@@H]4[C@@H]3CC[C@]3(C)[C@@H]5[C@H](C[C@@H]43)O[C@]3(CCC(C)CO3)[C@H]5C)C2)CCc2ccccc2C1 (some centres not stated)
IC50 [1]: 9.52 µM
IC50 [2]: 10.8 µM
IC50 [3]: 13.8 µM

CC[N+]1(CCCC(=O)O[C@H]2CC[C@@]3(C)C(=CC[C@H]4[C@@H]5C[C@@H]6O[C@]7(CCC(C)CO7)[C@@H](C)[C@@H]6[C@@]5(C)CC[C@@H]43)C2)CCCC1 (some centres not stated)
IC50 [1]: 16.8 µM
IC50 [2]: 16.2 µM
IC50 [3]: 26.4 µM

CC[N+]1(CCCC(=O)O[C@H]2CC[C@@]3(C)[C@H](CC[C@@H]4[C@@H]3CC[C@]3(C)[C@@H]5[C@H](C[C@@H]43)O[C@]3(CCC(C)CO3)[C@H]5C)C2)CCCCC1 (some centres not stated)
IC50 [1]: 19.9 µM
IC50 [2]: 14.6 µM
IC50 [3]: 37.8 µM

CC[N+]1(CCCC(=O)O[C@H]2CC[C@@]3(C)[C@H](CC[C@@H]4[C@@H]3CC[C@]3(C)[C@@H]5[C@H](C[C@@H]43)O[C@]3(CCC(C)CO3)[C@H]5C)C2)CCNCC1 (some centres not stated)
IC50 [1]: > 50 µM
IC50 [2]: 26.1 µM
IC50 [3]: > 50 µM

CC(=O)O[C@H]1CC[C@@]2(C)C(=CC[C@H]3[C@@H]4C[C@@H]5O[C@H](CC[C@@H](C)COC(=O)CC[P+](c6ccccc6)(c6ccccc6)c6ccccc6)[C@@H](C)[C@@H]5[C@@]4(C)CC[C@@H]32)C1
IC50 [1]: 26.2 µM
IC50 [2]: 5.99 µM
IC50 [3]: 38.5 µM

CC(=O)O[C@H]1CC[C@@]2(C)C(=CC[C@H]3[C@@H]4C[C@@H]5O[C@H](CC[C@@H](C)COC(=O)CCC[P+](c6ccccc6)(c6ccccc6)c6ccccc6)[C@@H](C)[C@@H]5[C@@]4(C)CC[C@@H]32)C1
IC50 [1]: 23.7 µM
IC50 [2]: 6.06 µM
IC50 [3]: 31.5 µM

CC(=O)O[C@H]1CC[C@@]2(C)C(=CC[C@H]3[C@@H]4C[C@@H]5O[C@H](CC[C@@H](C)COC(=O)CCCCC[P+](c6ccccc6)(c6ccccc6)c6ccccc6)[C@@H](C)[C@@H]5[C@@]4(C)CC[C@@H]32)C1
IC50 [1]: 30.1 µM
IC50 [2]: 5.63 µM
IC50 [3]: 36.6 µM

CC[N+]1(CCCC(=O)OC[C@H](C)CC[C@H]2O[C@H]3C[C@H]4[C@@H]5CC=C6C[C@@H](OC(C)=O)CC[C@]6(C)[C@H]5CC[C@]4(C)[C@H]3[C@@H]2C)CCNCC1
IC50 [1]: 34.6 µM
IC50 [2]: 13.7 µM
IC50 [3]: 36.4 µM

CC[N+]1(CCCC(=O)O[C@H]2CC[C@@]3(C)[C@H](CC[C@@H]4[C@@H]3CC[C@]3(C)[C@@H]5[C@H](C[C@@H]43)O[C@]3(CCC(C)CO3)[C@H]5C)C2)CCCC1 (some centres not stated)
IC50 [1]: 9.08 µM
IC50 [2]: 15.4 µM
IC50 [3]: 16.2 µM

CC[N+]1(CCCC(=O)OC[C@H](C)CC[C@H]2O[C@H]3C[C@H]4[C@@H]5CC=C6C[C@@H](OC(C)=O)CC[C@]6(C)[C@H]5CC[C@]4(C)[C@H]3[C@@H]2C)CCOCC1
IC50 [1]: > 50 µM
IC50 [2]: 17.4 µM
IC50 [3]: > 50 µM

CC[N+]1(CCCC(=O)O[C@H]2CC[C@@]3(C)C(=CC[C@H]4[C@@H]5C[C@@H]6O[C@]7(CCC(C)CO7)[C@@H](C)[C@@H]6[C@@]5(C)CC[C@@H]43)C2)CCCCC1 (some centres not stated)
IC50 [1]: 19.2 µM
IC50 [2]: 15.4 µM
IC50 [3]: 40.5 µM

CC[N+]1(CCCC(=O)OC[C@H](C)CC[C@H]2O[C@H]3C[C@H]4[C@@H]5CC=C6C[C@@H](OC(C)=O)CC[C@]6(C)[C@H]5CC[C@]4(C)[C@H]3[C@@H]2C)CCCC1
IC50 [1]: > 50 µM
IC50 [2]: 20.7 µM
IC50 [3]: > 50 µM

CC[N+]1(CCCC(=O)OC[C@H](C)CC[C@H]2O[C@H]3C[C@H]4[C@@H]5CC=C6C[C@@H](OC(C)=O)CC[C@]6(C)[C@H]5CC[C@]4(C)[C@H]3[C@@H]2C)CCc2ccccc2C1 (some centres not stated)
IC50 [1]: 33.5 µM
IC50 [2]: 14.4 µM
IC50 [3]: 34.8 µM

CC[N+]1(CCCC(=O)O[C@H]2CC[C@@]3(C)C(=CC[C@H]4[C@@H]5C[C@@H]6O[C@]7(CCC(C)CO7)[C@@H](C)[C@@H]6[C@@]5(C)CC[C@@H]43)C2)CCOCC1 (some centres not stated)
IC50 [1]: 27.9 µM
IC50 [2]: 29.1 µM
IC50 [3]: 41.6 µM

C[C@@H]1CC[C@@]2(OC1)O[C@H]1C[C@H]3[C@@H]4CC[C@@H]5C[C@@H](O)CC[C@]5(C)[C@H]4CC[C@]3(C)[C@H]1[C@@H]2C
IC50 [1]: > 50 µM
IC50 [2]: > 50 µM
IC50 [3]: > 50 µM

CC[N+]1(CCCC(=O)OC[C@H](C)CC[C@H]2O[C@H]3C[C@H]4[C@@H]5CC=C6C[C@@H](OC(C)=O)CC[C@]6(C)[C@H]5CC[C@]4(C)[C@H]3[C@@H]2C)CCCCC1
IC50 [1]: > 50 µM
IC50 [2]: 18 µM
IC50 [3]: > 50 µM

CC1CC[C@@]2(OC1)O[C@H]1C[C@H]3[C@@H]4CC=C5C[C@@H](OC(=O)CC[P+](c6ccccc6)(c6ccccc6)c6ccccc6)CC[C@]5(C)[C@H]4CC[C@]3(C)[C@H]1[C@@H]2C (some centres not stated)
IC50 [1]: 8.28 µM
IC50 [2]: 1.19 µM
IC50 [3]: 7.92 µM

CC[N+]1(CCCC(=O)O[C@H]2CC[C@@]3(C)C(=CC[C@H]4[C@@H]5C[C@@H]6O[C@]7(CCC(C)CO7)[C@@H](C)[C@@H]6[C@@]5(C)CC[C@@H]43)C2)CCc2ccccc2C1 (some centres not stated)
IC50 [1]: 18.8 µM
IC50 [2]: 8.43 µM
IC50 [3]: 20.6 µM

CC1CC[C@@]2(OC1)O[C@H]1C[C@H]3[C@@H]4CC[C@@H]5C[C@@H](OC(=O)CC[P+](c6ccccc6)(c6ccccc6)c6ccccc6)CC[C@]5(C)[C@H]4CC[C@]3(C)[C@H]1[C@@H]2C (some centres not stated)
IC50 [1]: 3.34 µM
IC50 [2]: 1.09 µM
IC50 [3]: 4.26 µM

CC1CC[C@@]2(OC1)O[C@H]1C[C@H]3[C@@H]4CC=C5C[C@@H](OC(=O)CCC[P+](c6ccccc6)(c6ccccc6)c6ccccc6)CC[C@]5(C)[C@H]4CC[C@]3(C)[C@H]1[C@@H]2C.[Br-] (some centres not stated)
IC50 [1]: 3.95 µM
IC50 [2]: 0.95 µM
IC50 [3]: 4.16 µM
Activity [4]: Active
Activity [5]: 8.51%
Activity [6]: 23.95%
Activity [7]: 48.2%
Activity [8]: Dose-dependent-effect
Activity [9]: Dose-dependent-effect
Activity [10]: Active
Activity [11]: Dose-dependent-effect
Activity [12]: 17.4%
Activity [13]: 40.6%
Activity [14]: 91.2%

CC1CC[C@@]2(OC1)O[C@H]1C[C@H]3[C@@H]4CC[C@@H]5C[C@@H](OC(=O)CCC[P+](c6ccccc6)(c6ccccc6)c6ccccc6)CC[C@]5(C)[C@H]4CC[C@]3(C)[C@H]1[C@@H]2C (some centres not stated)
IC50 [1]: 3.44 µM
IC50 [2]: 1 µM
IC50 [3]: 3.62 µM
